This passage reports inhibition of growth results from patent publication US11180462B2, “Microbiocidal oxadiazole derivatives” (SYNGENTA PARTICIPATIONS AG, priority 2015, dated 2021).

This assay relates to Glomerella lagenarium (Colletotrichum lagenarium). As to the kind of experiment: Fungicidal activity against Glomerella lagenarium (Colletotrichum lagenarium) liquid culture / cucumber / preventative (anthracnose). It is filed as cell-based. The following applies: Colletotrichum orbiculare; 20 ppm in the applied formulation; liquid culture (PDB), growth inhibition measured photometrically after 3 to 4 days; compared to untreated control; read-out: disease control. How it is done:
Mycelia fragments or conidia suspensions of a fungus prepared either freshly from liquid cultures of the fungus or from cryogenic storage, are directly mixed into nutrient broth. DMSO solutions of the test compound (max. 10 mg/ml) are diluted with 0.025% Tween20 by a factor of 50 and 10 μl of this solution is pipetted into a microtiter plate (96-well format). The nutrient broth containing the fungal spores/mycelia fragments is then added to give an end concentration of the tested compound. The test plates are incubated in the dark at 24° C. and 96% relative humidity. The inhibition of fungal growth is determined photometrically after 2 to 7 days, depending on the pathosystem, and percent antifungal activity relative to the untreated check is calculated.
Fungicidal activity against Glomerella lagenarium (Colletotrichum lagenarium) liquid culture/cucumber/Preventative (Anthracnose)
Conidia of the fungus from cryogenic storage are directly mixed into nutrient broth (PDB—potato dextrose broth). After placing a (DMSO) solution of test compound into a microtiter plate (96-well format), the nutrient broth containing the fungal spores is added.
The following compounds at 20 ppm in the applied formulation give at least 80% disease control in this test when compared to untreated control under the same conditions, which show extensive disease development.

A value given as a limit tells only on which side of the number the result lay.

Turning to `COCCCC(=O)N(Cc1ccc(-c2noc(C(F)(F)F)n2)cc1)OCC=C(Cl)Cl` [Compound 1.543, N-(3,3-dichloroallyloxy)-4-methoxy-N-[[4-[5-(trifluoromethyl)-1,2,4-oxadiazol-3-yl]phenyl]methyl]-butanamide], the inhibition of growth at 20 ppm is not below 80%.

As to `CC1(C(=O)N(Cc2ccc(-c3noc(C(F)(F)F)n3)cc2)OCc2ccc(Cl)cc2)COC1` [Compound 1.556, N-[(4-chlorophenyl)-methoxy]-3-methyl-N-[[4-[5-(trifluoromethyl)-1,2,4-oxadiazol-3-yl]phenyl]methyl]-oxetane-3-carboxamide], the inhibition of growth at 20 ppm is not below 80%.

Regarding `COC(C)C(=O)N(Cc1ccc(-c2noc(C(F)(F)F)n2)cc1)OCC=C(Cl)Cl` (centres unmarked) [Compound 1.546, N-(3,3-dichloroallyloxy)-2-methoxy-N-[[4-[5-(trifluoromethyl)-1,2,4-oxadiazol-3-yl]phenyl]methyl]-propanamide], the inhibition of growth at 20 ppm was not below 80%.

In the case of `CC(C)(C)CC(=O)N(Cc1ccc(-c2noc(C(F)(F)F)n2)cc1)C1CC1` [Compound 1.116, N-cyclopropy 1-3,3-dimethyl-N-[[4-[5-(trifluoromethyl)-1,2,4-oxadiazol-3-yl]phenyl]methyl]-butanamide], the inhibition of growth at 20 ppm is not below 80%.

Regarding `CON(Cc1ccc(-c2noc(C(F)(F)F)n2)cc1)C(=O)OCCCCCl` [Compound 2.13, 4-chlorobutyl N-methoxy-N-[[4-[5-(trifluoromethyl)-1,2,4-oxadiazol-3-yl]phenyl]methyl]-carbamate], the inhibition of growth at 20 ppm is not below 80%.

In the case of `O=C(C1CC1(Cl)Cl)N(Cc1ccc(-c2noc(C(F)(F)F)n2)cc1)CC1CC1` (centres unmarked) [Compound 1.232, 2.2-dichloro-N-(cyclopropylmethyl)-N-[[4-[5-(trifluoromethyl)-1,2,4-oxadiazol-3-yl]phenyl]methyl]-cyclopropane-carboxamide], the inhibition of growth at 20 ppm is not below 80%.

For the molecule `CON(C(=O)c1ccoc1)C(C)c1ccc(-c2noc(C(F)(F)F)n2)cc1` (centres unmarked) [Compound 1.278, N-methoxy-N-[1-[4-[5-(trifluoromethyl)-1,2,4-oxadiazol-3-yl]phenyl]ethyl]furan-3-carboxamide], the inhibition of growth at 20 ppm is not below 80%.

Turning to `C=CCCC(=O)N(Cc1ccc(-c2noc(C(F)(F)F)n2)cc1)CC1CC1` [Compound 1.208, N-(cyclopropylmethyl)-N-[[4-[5-(trifluoromethyl)-1,2,4-oxadiazol-3-yl]phenyl]methyl]-pent-4-enamide], the inhibition of growth at 20 ppm is not below 80%.

On to `CC(C)(C)CC(=O)N(Cc1ccc(-c2noc(C(F)(F)F)n2)cc1)CC1CCCO1` (centres unmarked) [Compound 1.429, 3,3-dimethyl-N-(tetrahydrofuran-2-ylmethyl)-N-[[4-[5-(trifluoromethyl)-1,2,4-oxadiazol-3-yl]phenyl]methyl]-butanamide], for which the inhibition of growth at 20 ppm was not below 80%.

Regarding `CCCCC(=O)N(Cc1ccc(-c2noc(C(F)(F)F)n2)cc1)OCCC` [Compound 1.322, N-propoxy-N-[[4-[5-(trifluoromethyl)-1,2,4-oxadiazol-3-yl]phenyl]methyl]-pentanamide], the inhibition of growth at 20 ppm was not below 80%.

Regarding `COC(C)C(=O)N(Cc1ccc(-c2noc(C(F)(F)F)n2)cc1)OCc1ccc(Cl)cc1` (centres unmarked) [Compound 1.559, N-[(4-chlorophenyl)-methoxy]-2-methoxy-N-[[4-[5-(trifluoromethyl)-1,2,4-oxadiazol-3-yl]phenyl)methyl]-propanamide], the inhibition of growth at 20 ppm is not below 80%.

Regarding `CON(C(=O)C=CC(C)=O)C(C)c1ccc(-c2noc(C(F)(F)F)n2)cc1` (centres unmarked) [Compound 1.272, N-methoxy-4-oxo-N-[1-[4-[5-(trifluoromethyl)-1,2,4-oxadiazol-3-yl]phenyl]ethyl]pent-2-enamide], the inhibition of growth at 20 ppm is not below 80%.

As to `C=C(C)C(=O)N(Cc1ccc(-c2noc(C(F)(F)F)n2)cc1)OCCC` [Compound 1.304, 2-methyl-N-propoxy-N-[[4-[5-(trifluoromethyl)-1,2,4-oxadiazol-3-yl]phenyl]methyl]-prop-2-enamide], the inhibition of growth at 20 ppm was not below 80%.

Regarding `COCC(=O)N(Cc1ccc(-c2noc(C(F)(F)F)n2)cc1)OCc1ccc(Cl)cc1` [Compound 1.551, N-[(4-chlorophenyl)-methoxy]-2-methoxy-N-[[4-[5-(trifluoromethyl)-1,2,4-oxadiazol-3-yl]phenyl]methyl]-acetamide], the inhibition of growth at 20 ppm was not below 80%.

Consider `CCCON(Cc1ccc(-c2noc(C(F)(F)F)n2)cc1)C(=O)C1CSC1` [Compound 1.292, N-propoxy-N-[[4-[5-(trifluoromethyl)-1,2,4-oxadiazol-3-yl]pheny1]methyl]-thietane-3-carboxamide], for which the inhibition of growth at 20 ppm was not below 80%.

Turning to `O=C(CC1CC1(F)F)N(Cc1ccc(-c2noc(C(F)(F)F)n2)cc1)CC1CC1` (centres unmarked) [Compound 1.240, N-(cyclopropylmethyl)-2-(2,2-difluorocyclopropyl)-N-[[4-[5-(trifluoromethyl)-1,2,4-oxadiazol-3-yl]phenyl]methyl]-acetamide], the inhibition of growth at 20 ppm was not below 80%.

As to `O=C(C1CC1(F)F)N(Cc1ccc(-c2noc(C(F)(F)F)n2)cc1)OCC=C(Cl)Cl` (centres unmarked) [Compound 1.540, N-(3,3-dichloroallyloxy)-2,2-difluoro-N-[[4-[5-(trifluoromethyl)-1,2,4-oxadiazol-3-yl]phenyl]methyl]-cyclopropane-carboxamide], the inhibition of growth at 20 ppm was not below 80%.

On to `O=C(N(Cc1ccc(-c2noc(C(F)(F)F)n2)cc1)C1CC1)C1(c2ccccc2)CC1` [Compound 1.96, N-cyclopropyl-1-phenyl-N-[[4-[5-(trifluoromethyl)-1,2,4-oxadiazol-3-yl]phenyl]methyl]-cyclopropane-carboxamide], for which the inhibition of growth at 20 ppm was not below 80%.

Take `C=CC(=O)N(CCOC)Cc1ccc(-c2noc(C(F)(F)F)n2)cc1` [Compound 1.343, N-(2-methoxyethyl)-N-[[4-[5-(trifluoromethyl)-1,2,4-oxadiazol-3-yl]phenyl]methyl]prop-2-enamide]: the inhibition of growth at 20 ppm was not below 80%.

`O=C(C1CC1)N(Cc1ccc(-c2noc(C(F)(F)F)n2)cc1)OCC=C(Cl)Cl` [Compound 1.548, N-(3,3-dichloroallyloxy)-N-[[4-[5-(trifluoromethyl)-1,2,4-oxadiazol-3-yl]phenyl]methyl]-cyclopropane-carboxamide]: the inhibition of growth at 20 ppm was not below 80%.

In the case of `CCCON(Cc1ccc(-c2noc(C(F)(F)F)n2)cc1)C(=O)CC1CC1` [Compound 1.289, 2-cyclopropyl-N-propoxy-N-[[4-[5-(trifluoromethyl)-1,2,4-oxadiazol-3-yl]phenyl]methyl]-acetamide], the inhibition of growth at 20 ppm was not below 80%.

For `CCCON(Cc1ccc(-c2noc(C(F)(F)F)n2)cc1)C(=O)C1CC1C` (centres unmarked) [Compound 1.299, 2-methyl-N-propoxy-N-[[4-[5-(trifluoromethyl)-1,2,4-oxadiazol-3-yl]phenyl]methyl]-cyclopropane-carboxamide], the inhibition of growth at 20 ppm was not below 80%.

For the molecule `CON(Cc1ccc(-c2noc(C(F)(F)F)n2)cc1)C(=O)CCc1ccc(Cl)cc1` [Compound 1.18, 3-(4-chlorophenyl)-N-methoxy-N-[[4-[5-(trifluoromethyl)-1,2,4-oxadiazol-3-yl]phenyl]methyl]-propanamide], the inhibition of growth at 20 ppm was not below 80%.
